According to patent publication US20200188471A1 (GUILIN EIGHT PLUS ONE PHARMACEUTICAL CO., LTD., priority 2017, published 2020):
Where two headings read alike, the source gives them in different places. No end group written: not given here.

Legend:
[1] = target: T1, interaction of TNFR1 and TNF-α (Homo sapiens, UniProt P19438); experiment: MST competitive inhibition between TNF-α and TNFR1; format: binding
T1 sequence (P19438 30-211 limits assumed): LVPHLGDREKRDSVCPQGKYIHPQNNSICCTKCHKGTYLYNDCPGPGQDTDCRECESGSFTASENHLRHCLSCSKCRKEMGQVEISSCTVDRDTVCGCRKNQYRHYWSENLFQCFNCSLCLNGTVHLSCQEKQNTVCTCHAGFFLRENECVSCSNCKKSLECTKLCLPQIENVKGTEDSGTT
Description: Calculate the KD value by software. The changes of TNF-α saturation concentration, response amplitude and KD value before and after Hydrostatin-SN10 were compared.

[2] = target: T2, TNFR2 (Homo sapiens, UniProt P20333); experiment: MST interaction with TNFR2; format: binding
T2 sequence (P20333 23-461): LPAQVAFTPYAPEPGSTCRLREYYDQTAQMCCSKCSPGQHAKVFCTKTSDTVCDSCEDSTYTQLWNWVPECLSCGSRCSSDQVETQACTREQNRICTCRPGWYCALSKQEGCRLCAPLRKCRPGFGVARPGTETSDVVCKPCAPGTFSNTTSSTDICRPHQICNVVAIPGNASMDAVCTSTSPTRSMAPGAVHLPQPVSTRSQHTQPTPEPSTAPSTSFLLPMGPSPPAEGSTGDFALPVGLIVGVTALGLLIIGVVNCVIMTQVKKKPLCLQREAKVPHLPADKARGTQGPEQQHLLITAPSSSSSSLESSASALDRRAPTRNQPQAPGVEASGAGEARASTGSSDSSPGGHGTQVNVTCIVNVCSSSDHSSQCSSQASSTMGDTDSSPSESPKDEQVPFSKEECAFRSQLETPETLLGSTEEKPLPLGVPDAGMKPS

[3] = target: T3, TNF-α (Homo sapiens, UniProt P01375); experiment: BIAcore (SPR) interaction with TNF-α; format: binding
[4] = system: CIA mice; experiment: Arthritis index in type II bovine collagen-induced arthritis (CIA) mice; format: in vivo, DBA/1 mice; conditions: i.p. 1600 ug/kg once a day for 18 days, vs model group
Description: (§1) After 3 days of adaptation, DBA/1 mice were weighed and began to model. Six were randomly selected as the normal group, and the rest were the experimental group.
(§2) Day 0: Take bovine type IT collagen (4 mg/ml) and vortex and mix with an equal volume of CFA (4 mg/ml). It is better to not disperse on the water, and 100 ul/head is injected intradermally into the tail of the mouse.
(§3) Day 21: Take bovine type II collagen (4 mg/ml) and vortex mixed with an equal volume of IFA (4 mg/ml) until the droplets are not dispersed on the water. The mice are injected intradermally with 100 ul/head. On the 30th day, the model was successfully established. […] The drug was administered by injection once a day for 18 days.
(§4) One-Way ANOVA statistical analysis of the data using Graphpad Prism 5 was considered statistically significant at P<0.05. “*” indicates P<0.05, “**” indicates P<0.01, and “***” indicates P<0.001.

[5] = system: CIA mice; experiment: Treg (Foxp3) and Th1, Th2, Th17 expression in T cells/splenocytes of CIA mice; format: in vivo, DBA/1 mice; conditions: vs model group; for expression level of Foxp3 in Treg cells: CIA mice; for expression level of IFN-γ (Th1) / expression level of IL-17 (Th17) / expression of IL-4 (Th2): splenocytes of CIA mice
Description: as §1, §2, §3, §4
Studies have shown that Th17 cells secrete high levels of IL-17, which stimulates the secretion of matrix metalloproteinase-1, IL-1β by FLS. TNF-α and other co-inducing NF-κB receptor activator ligands are involved in the bone destruction of RA and inflammatory damage in tissues. The effect was observed by measuring the expression of helper T cells in splenocytes.

[6] = system: CIA mice; experiment: Collagen-specific antibody and inflammatory factors in serum of CIA mice (ELISA, multi-factor kit); format: in vivo, DBA/1 mice; conditions: 1600 ug/kg i.p., vs model group
Description: as §1, §2, §3, §4
The ELISA kit and multi-factor kit were used to determine the collagen-specific antibody Ig G and pro-inflammatory factors IL-17, TNF-α, IL-6, IFN-γ and anti-inflammatory factor IL-10 in the serum of each group of mice. Compared with the normal control group, the collagen-specific antibody Ig G and the pro-inflammatory factors IL-17, TNF-α, IL-6, IFN-γ in the serum of the model group mice.

[7] = system: CIA mice; experiment: Joint histology of CIA mice (HE staining, TNF-α immunohistochemistry, TRAP staining); format: in vivo, DBA/1 mice; conditions: for osteoclasts in joints / tartrate-resistant phosphatase (TRAP) in joints: TRAP staining; for osteoclasts in joints / tartrate-resistant phosphatase (TRAP) in joints / amount of expression of TNF-α in the joints: vs model group; for amount of expression of TNF-α in the joints: immunohistochemistry
[8] = target: T4, interaction of TNFR1 with TNF-α (Homo sapiens, UniProt P19438); experiment: BIAcore (SPR) competitive inhibition between TNF-α and TNFR1; format: binding
T4 sequence (P19438 30-211 limits assumed): T1 sequence (P19438 30-211 limits assumed)

[9] = target: T5, TNFR1 (Homo sapiens, UniProt P19438); conditions: read-out: binding capacity with TNFR1 (KD); SPR; from Hailong Jiang 2015 master dissertation of the inventors' group; cited from earlier work
T5 sequence (P19438 30-455): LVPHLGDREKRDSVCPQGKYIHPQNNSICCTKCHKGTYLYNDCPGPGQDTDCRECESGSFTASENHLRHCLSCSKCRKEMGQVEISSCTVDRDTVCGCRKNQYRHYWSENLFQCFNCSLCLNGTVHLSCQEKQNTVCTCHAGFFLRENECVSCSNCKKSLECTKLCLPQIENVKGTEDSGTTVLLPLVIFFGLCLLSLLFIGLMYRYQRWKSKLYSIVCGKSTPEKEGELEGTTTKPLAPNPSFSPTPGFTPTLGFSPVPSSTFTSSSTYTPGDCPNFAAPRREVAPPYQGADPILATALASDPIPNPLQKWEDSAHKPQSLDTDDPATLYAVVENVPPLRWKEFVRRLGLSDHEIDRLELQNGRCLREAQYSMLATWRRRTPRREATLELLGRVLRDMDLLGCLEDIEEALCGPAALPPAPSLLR

[10] = system: CIA mice; experiment: Micro-CT detection of bone destruction in CIA mice; format: in vivo, DBA/1 mice; conditions: for trabecular bone damage: Micro-CT of trabecular bone; for trabecular bone damage / degree of bone destruction, hind limbs: CIA mice; for trabecular bone damage / bone area/tissue volume (BS/TV) / bone mineral density (BMD) / bone surface area/bone volume (BS/BV) / bone volume/tissue volume (BV/TV) / number of trabeculae (Th.N) / trabecular model factor (Tb.pf) / trabecular separation (Tb.sp) / trabecular thickness (Tb.Th): vs model group; for degree of bone destruction, hind limbs / bone area/tissue volume (BS/TV) / bone mineral density (BMD) / bone surface area/bone volume (BS/BV) / bone volume/tissue volume (BV/TV) / number of trabeculae (Th.N) / trabecular model factor (Tb.pf) / trabecular separation (Tb.sp) / trabecular thickness (Tb.Th): Micro-CT; for degree of bone destruction, hind limbs: peptides 1600 ug/kg, infliximab 4 mg/kg i.p.; for bone area/tissue volume (BS/TV) / bone mineral density (BMD) / bone surface area/bone volume (BS/BV) / bone volume/tissue volume (BV/TV) / number of trabeculae (Th.N) / trabecular model factor (Tb.pf) / trabecular separation (Tb.sp) / trabecular thickness (Tb.Th): trabecular bone
[11] = target: T3, TNF-α; experiment: MST interaction with TNF-α; format: binding; conditions: fluorescently labeled TNF-α
[12] = target: TNFR2; experiment: MST, fluorescently labelled TNFR2, TNF-α titrated, no SN10
[13] = target: TNFR1; experiment: MST, fluorescently labelled TNFR1, TNF-α titrated, no SN10
[14] = target: TNFR2; experiment: MST, fluorescently labelled TNFR2, TNF-α titrated in the presence of 100 µM SN10; apparent KD
[15] = target: TNF-α; experiment: MST, fluorescently labelled TNF-α, TNFR1 titrated, no SN10
[16] = target: TNFR1
[17] = target: TNFR1; remark: listed apart in the source
[18] = target: TNFR1; experiment: MST, fluorescently labelled TNFR1 with an SN10 dilution series
[19] = target: TNFR1; experiment: BIAcore SPR, TNFR1 coated on CM-5 chip, peptide injected

| Molecule | expression level of Foxp3 in Treg cells [5] | expression level of IFN-γ (Th1) [5] | expression level of IL-17 (Th17) [5] | expression of IL-4 (Th2) [5] | content of IFN-γ in serum [6] | content of IL-6 in serum [6] | content of IL-17 in serum [6] | content of TNF-α in serum [6] | content of anti-inflammatory factor IL10 in serum [6] | content of collagen-specific antibody Ig G in serum [6] | inflammatory cell infiltration ([7]; HE staining of joint) | joint structure ([7]; HE staining of joint) | osteoclasts in joints [7] | tartrate-resistant phosphatase (TRAP) in joints [7] | amount of expression of TNF-α in the joints [7] | trabecular bone damage [10] | degree of bone destruction, hind limbs [10] | bone area/tissue volume (BS/TV) [10] | bone mineral density (BMD) [10] | bone surface area/bone volume (BS/BV) [10] | also measured |
| --- | --- | --- | --- | --- | --- | --- | --- | --- | --- | --- | --- | --- | --- | --- | --- | --- | --- | --- | --- | --- | --- |
| H-DEQHLETELH [Hydrostatin-SN10] | significantly increased | significantly down-regulated | significantly down-regulated | up-regulated | significantly reduced | significantly reduced | significantly reduced | significantly reduced | Significantly increased | significantly reduced | more severe inflammatory cell infiltration | intact joint structure | reduced osteoclasts | reduced | reduced | significantly reduced bone damage | significantly reduced the degree of bone destruction | significantly up-regulated | significantly up-regulated | significant down | competitive inhibition of the interaction of TNFR1 and TNF-α [1]: competitively inhibit; binding to TNFR2 ([2]; fluorescently labeled TNFR2): not binding; binding to TNFR2 ([2]; fluorescently labeled TNFR2, listed as SN10): no binding; binding to TNF-α [3]: does not bind; binding to TNF-α ([3]; listed as SN10): no binding; arthritis index [4]: reduced; synovial hyperplasia ([7]; HE staining of joint): severe synovial hyperplasia; competitive inhibition of the interaction of TNFR1 with TNF-α [8]: competitively inhibits; Kd [9]: ~2800 nM; bone volume/tissue volume (BV/TV) [10]: significantly up-regulated; number of trabeculae (Th.N) [10]: significantly up-regulated; trabecular model factor (Tb.pf) [10]: significant down; trabecular separation (Tb.sp) [10]: significant down; trabecular thickness (Tb.Th) [10]: significantly up-regulated; binding to TNF-α [11]: not binding; binding to TNF-α ([11]; listed as SN10): no binding |
| PEG-SN10: Hydrostatin-SN10 modified by mPEG2000, carboxyl of mPEG2000 connected to free amino group of N-terminal aspartic acid (mPEG2000-DEQHLETELH) | significantly increased | significantly down-regulated | significantly down-regulated | up-regulated | significantly reduced | significantly reduced | significantly reduced | significantly reduced | Significantly increased | significantly reduced | weak inflammatory cell infiltration | complete joint structure | reduced osteoclasts | reduced | reduced | significantly reduced bone damage | significantly reduced the degree of bone destruction | significantly up-regulated | significantly up-regulated | significant down | joint damage ([7]; HE staining of joint): significantly weakened; bone volume/tissue volume (BV/TV) [10]: significantly up-regulated; number of trabeculae (Th.N) [10]: significantly up-regulated; trabecular model factor (Tb.pf) [10]: significant down; trabecular separation (Tb.sp) [10]: significant down; trabecular thickness (Tb.Th) [10]: significantly up-regulated |
| TNF-α (ligand) |  |  |  |  |  |  |  |  |  |  |  |  |  |  |  |  |  |  |  |  | Kd [12]: 328 nM; Kd [13]: 116 nM; Kd [14]: 384 nM |
| TNFR1 (receptor) |  |  |  |  |  |  |  |  |  |  |  |  |  |  |  |  |  |  |  |  | Kd [15]: 2.84 nM |
| infliximab: anti-TNF-α monoclonal antibody, positive drug [reference compound] | significantly increased | significantly down-regulated | significantly down-regulated | up-regulated |  |  |  |  |  |  | weak inflammatory cell infiltration | complete joint structure |  |  |  | significantly reduced bone damage | significantly reduced the degree of bone destruction |  |  |  | joint damage ([7]; HE staining of joint): significantly weakened |
| DEQHLETELH (modifications not checked) [selective TNFR1 antagonist peptide Hydrostatin-SN10] |  |  |  |  |  |  |  |  |  |  |  |  |  |  |  |  |  |  |  |  | Kd [16]: 2830 nM; Kd [17]: 2780 nM; Kd [18]: 2800 nM; Kd [19]: 2800 nM |
